From patent US20170027973A1, “MODULARION OF INVARIANT NATURAL KILLER T CELLS IN THE TREATMENT OF SEPSIS” (LONDON HEALTH SCIENCES CENTRE RESEARCH INC., priority 2014, published 2017)

How the values were obtained:
[1] = tested on: splenocyte apoptosis; assay: Histology (H&E) and TUNEL staining of spleen, liver and omentum of septic B6 mice; type: in vivo, mouse; conditions: 24 hours
Excerpt: FIG. 6: Histopathology of septic B6 mice treated with glycolipid agonists of iNKT cells. […] Lymphocyte migration to the omentum is also ameliorated in OCH-treated mice compared to vehicle- and KRN7000-treated mice. There were no histopathological differences in the liver. Images are representative of 4 animals per treatment group (size bar, 50 μm). (b) Histopathological scoring of the degree of apoptosis observed within the spleens of sham and septic B6 mice treated with vehicle, KRN7000, or OCH (n=4 animals per treatment group). Apoptosis was defined histologically by the presence of cell clusters with nuclear shrinkage (karyorrhexis), dark eosinophilic cytoplasm, intact plasma membrane, and relative paucity of surrounding inflammatory cells within the splenic follicles on H&E staining. Scores assigned to each animal by a blinded independent pathologist were as follows: 0 for complete absence of apoptosis; 1 for mild presence of apoptosis (0-15% per follicle); 2 for moderate apoptosis (16-30% per follicle); and 3 for severe apoptosis (31-45% per follicle). ***p<0.0001 by two-tailed Mann Whitney U test.
Liver, spleen, and omentum from sham B6 mice, and vehicle-, OCH-, and KRN7000-treated septic B6 mice were fixed in 10% neutral buffered formalin, embedded in paraffin, sectioned, and stained with H&E or subjected to TUNEL staining using a commercially available kit (Calbiochem). At least four stained sections per spleen from four animals per treatment group were examined and scored for apoptosis by a board-certified veterinary pathologist (Welch) who was blinded to the study design. Apoptosis was defined histologically by the presence of cell clusters with nuclear shrinkage (karyorrhexis), dark eosinophilic cytoplasm, intact plasma membrane, and relative paucity of surrounding inflammatory cells within the splenic follicles on H&E staining (34). Scores assigned to each animal were as follows: 0 for complete absence of apoptosis; 1 for mild presence of apoptosis (0-15% per follicle); 2 for moderate apoptosis (16-30% per follicle); and 3 for severe apoptosis (31-45% per follicle). Photomicrographs were taken using a Nikon DS-Fi1 digital camera using NIS-elements software.

[2] = tested on: B6 mice with intra-abdominal sepsis (IAS); assay: Murine intra-abdominal sepsis (IAS) model: survival and murine sepsis score (MSS); type: in vivo, mouse; conditions: septic B6 mice
Experimental: Stool from the cecum of euthanized naïve B6 mice was expressed through an enterotomy, homogenized, and suspended in 0.9% normal saline (NS) to produce a fecal slurry at a final concentration of 90 mg/mL, for use in experiments on the same day. Mice were injected intraperitoneally with 500 μL fecal slurry or 0.9% normal saline (sham group). The mice were monitored and scored by two independent investigators—one of whom was blinded to the treatment—every 2-3 hours for the first 12 hours, and then every 1-2 hours thereafter. A murine sepsis score (MSS) was assigned to each mouse based on activity, eye movement, response to exogenous stimuli, breathing rate and pattern, and degree of piloerection (Shrum et al. BMC Research Notes 2014, 7:233). The MSS is a reliable and robust scoring system that has excellent inter-rater reliability (intra-class coefficient=0.96), high internal consistency (Cronbach α=0.92), and correlates with levels of certain pro-inflammatory cytokines such as IFN-γ and IL-1β during the experimental timeline (Shrum et al. BMC Research Notes 2014, 7:233). Mice were euthanized at 24 hours, or earlier if they were deemed to be in significant distress based on our scoring model. Euthanasia was carried out as described above. At the time of sacrifice, intra-cardiac blood was drawn into 1.5 mL micro-centrifuge tubes (BD Biosciences) and centrifuged for serum at 1000×g for 30 minutes at 4° C.
(§1) Lyophilized OCH was generously provided by the National Institutes of Health (NIH) Tetramer Core Facility (Emory University, Atlanta, Ga.). Each vial containing 0.2 mg of OCH was solubilized in a vehicle solution containing 1 mL of sterile distilled water, 0.5% Tween 20, 56 mg of sucrose and 7.5 mg of histidine, and stored as aliquots at 4° C. until use. KRN7000 (α-GalCer, C26:0/C18:0) was purchased from Funakoshi Co. Ltd. (Tokyo, Japan), solubilized at 1 mg/ml in dimethylsulphoxide (DMSO), and stored as aliquots at −20° C. until use (29); the control vehicle was 2% DMSO in phosphate-buffered saline (PBS). C20:2 was synthesized and used as previously published (30, 31). For in vivo experiments, mice were injected intraperitoneally (i.p.) with a single dose of glycolipid (4 μg/dose) (30) within twenty minutes after induction of IAS.

[3] = C20:2 compared to OCH; cited from earlier work
[4] = tested on: serum IL-4 and IFN-γ; assay: Serum IL-4 and IFN-γ by ELISA after i.p. glycolipid injection into naïve B6 mice; type: in vivo, mouse; conditions: compared to OCH
Experimental: FIG. 10: Effect of glycolipid agonists on cytokine expression in naïve B6 mice, and on iNKT cells in septic B6 mice. (a) Naïve B6 mice were injected i.p. with 4 μg OCH or KRN7000 or C20:2, and bled at 2, 12, and 24 hours post-injection. Serum samples were assayed for IL-4 and IFN-γ by enzyme-linked immunosorbent assay (ELISA). […] Vehicle-treated mice had cytokine levels below limits of detection. (b) B6 mice were given an intraperitoneal injection of fecal slurry (500 μL of a 90 mg/mL solution) to induce IAS and concomitantly treated with 4 μg of vehicle, OCH, or KRN7000. After 24 hours, mice were sacrificed, and cell suspensions from the liver and spleen were stained for the flow cytometric detection of CD1d tetramer+ TCRβ+iNKT cells.
as §1
Cytokine concentrations were determined by commercially available specific ELISA assays for IL-4 and IFN-γ (Ready-Set-Go kits, eBioscience). ODs were measured on a Benchmark Microplate Reader (Bio-Rad) at a wavelength of 450 nm for both cytokines.

[5] = tested on: invariant TCR; conditions: C20:2 compared to OCH; cited from earlier work

CCCCC/C=C\C/C=C\CCCCCCCCCC(=O)N[C@@H](CO[C@H]1O[C@H](CO)[C@H](O)[C@H](O)[C@H]1O)[C@H](O)[C@H](O)CCCCCCCCCCCCCC [C20:2]
apoptosis in histology compared to KRN7000-treated mice [1]: decrease
degree of apoptosis compared to OCH-treated mice [1]: higher
respiratory status ([2]; observed up to 24 hours): improved respiratory status
course of MSS over time ([2]; up to 24 hours): continued to rise
MSS between 20 and 24 hours ([2]; compared to vehicle-treated mice): significant reduction
half-life [3]: relatively short
Th2 response at 24 hours [4]: more pronounced
capacity to bind and activate iNKT cells [5]: significantly stronger
